Measurements taken from ChEMBL document CHEMBL1201862, “PubChem BioAssay data set” (2004).
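Exposure lasted 48 hours, with cells grown in 96-well plates and compounds tested at five concentrations. The concentration for 50% growth inhibition is given as GI50.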 Activity calls are given as the source filed them. Rule as the data show it: active = GI50 up to about 1.1 µM and inactive = higher.

How the values were obtained:
Assay in all cases: growth of human tumour cells (NCI), 48 h
786-0 = test system: 786-0
A549 = test system: A549
CAKI-1 = test system: CAKI-1
COLO 205 = test system: COLO 205
DLD-1 = test system: DLD-1
DMS-273 = test system: DMS-273
EKVX = test system: EKVX
HCC 2998 = test system: HCC 2998
HCT-15 = test system: HCT-15
HOP-18 = test system: HOP-18
HOP-62 = test system: HOP-62
HT-29 = test system: HT-29
IGROV-1 = test system: IGROV-1
K562 = test system: K562
KM-20L2 = test system: KM-20L2
KM12 = test system: KM12
LOX IMVI = test system: LOX IMVI
M14 = test system: M14
M19-MEL = test system: M19-MEL
Malme-3M = test system: Malme-3M
NCI-H23 = test system: NCI-H23
OVCAR-4 = test system: OVCAR-4
OVCAR-5 = test system: OVCAR-5
OVCAR-8 = test system: OVCAR-8
RPMI-8226 = test system: RPMI-8226
RXF 393 = test system: RXF 393
SF-268 = test system: SF-268
SF-295 = test system: SF-295
SF-539 = test system: SF-539
SK-MEL-28 = test system: SK-MEL-28
SK-MEL-2 = test system: SK-MEL-2
SK-OV-3 = test system: SK-OV-3
SN12C = test system: SN12C
SNB-19 = test system: SNB-19
SNB-75 = test system: SNB-75
SNB-78 = test system: SNB-78
TK-10 = test system: TK-10
U-251 = test system: U-251
UACC-257 = test system: UACC-257
UACC-62 = test system: UACC-62
UO-31 = test system: UO-31
XF498 = test system: XF498

CC[P+](C)(Cc1ccccc1)c1ccccc1.O=C(OC(C(=O)[O-])C(OC(=O)c1ccccc1)C(=O)O)c1ccccc1 (configuration not stated)
GI50 (786-0): > 100 µM (inactive) | GI50 (A549): > 100 µM (inactive) | GI50 (CAKI-1): > 100 µM (inactive) | GI50 (COLO 205): > 100 µM (inactive) | GI50 (DLD-1): > 100 µM (inactive) | GI50 (DMS-273): > 100 µM (inactive) | GI50 (EKVX): > 100 µM (inactive) | GI50 (HCC 2998): > 100 µM (inactive) | GI50 (HCT-15): > 100 µM | GI50 (HOP-18): 5.47 µM (inactive) | GI50 (HOP-62): > 100 µM (inactive) | GI50 (HT-29): > 100 µM (inactive) | GI50 (IGROV-1): > 100 µM (inactive) | GI50 (K562): > 100 µM (inactive) | GI50 (KM-20L2): > 100 µM (inactive) | GI50 (KM12): > 100 µM (inactive) | GI50 (LOX IMVI): > 100 µM (inactive) | GI50 (M14): > 100 µM (inactive) | GI50 (M19-MEL): > 100 µM (inactive) | GI50 (Malme-3M): > 100 µM (inactive) | GI50 (NCI-H23): > 100 µM (inactive) | GI50 (OVCAR-4): > 100 µM (inactive) | GI50 (OVCAR-5): > 100 µM (inactive) | GI50 (OVCAR-8): > 100 µM (inactive) | GI50 (RPMI-8226): > 100 µM (inactive) | GI50 (RXF 393): > 100 µM (inactive) | GI50 (SF-268): > 100 µM (inactive) | GI50 (SF-295): > 100 µM (inactive) | GI50 (SF-539): > 100 µM (inactive) | GI50 (SK-MEL-28): > 100 µM (inactive) | GI50 (SK-MEL-2): > 100 µM (inactive) | GI50 (SK-OV-3): > 100 µM (inactive) | GI50 (SN12C): > 100 µM (inactive) | GI50 (SNB-19): > 100 µM (inactive) | GI50 (SNB-75): > 100 µM (inactive) | GI50 (SNB-78): > 100 µM (inactive) | GI50 (TK-10): > 100 µM (inactive) | GI50 (U-251): > 100 µM (inactive) | GI50 (UACC-257): > 100 µM (inactive) | GI50 (UACC-62): > 100 µM (inactive) | GI50 (UO-31): > 100 µM (inactive) | GI50 (XF498): > 100 µM (inactive)
